From US20220324835A1 (Nurix Therapeutics, Inc., priority 2018, published 2022)

Tests used:
Cbl-b [1] = biological target: T1, Cbl-b (Homo sapiens, UniProt Q13191); experiment: Cbl-b inhibition assay (Cbl-b activity assay, FRET, Biological Example 1; 100 mM NaCl, 60 nM Src kinase); format: biochemical; conditions: upper bound stated in text lists; read-out: IC50 values in the Cbl-b inhibition assay of Biological Example 1
In short: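 Binding-based Cbl-b activity assay. Src-phosphorylated, N-terminally biotin-Avi-tagged Cbl-b recruits labelled UbcH5B-Ub, and proximity to streptavidin-terbium yields FRET.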

T-cell [2] = experiment: IL-2 secretion from T-cells co-stimulated with anti-CD3 and anti-CD28 antibody (Biological Example 2); format: cell-based, human; conditions: Homo sapiens, T-cell, primary human total T-cells
In short: (§1)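 No assay protocol given; T-cells stimulated with anti-CD3 alone or anti-CD3 plus anti-CD28, with or without Cbl-b inhibitor. Activation read as IL-2 secretion or CD25 surface staining, expressed as fold over baseline from uninhibited cells […].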

T-cell [3] = experiment: CD25 cell surface staining on T-cells co-stimulated with anti-CD3 and anti-CD28 antibody (Biological Example 2); format: cell-based, human; conditions: Homo sapiens, T-cell, primary human total T-cells
In short: as §1

Cbl-b [4] = biological target: T1, Cbl-b; experiment: Cbl-b activity assay (Cbl-b inhibition assay), TR-FRET of Cbl-b interaction with UbcH5B-Ub; format: biochemical
In short: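 TR-FRET readout of Cbl-b binding to Bodipy-fluorescein N-terminally labeled Ub conjugated to UbcH5B C85K, measured with compound present. After compound incubation, 60 nM Src kinase with 1 mM ATP and 5 mM MgCl2 (final) was added for 1.5 h, then a further 1 h incubation; asterisked values used 50 mM NaCl buffer and 30 nM Src.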

Cbl-b (residues 36-427) = Cbl-b (residues 36-427) (Homo sapiens, UniProt Q13191); experiment: Cbl-b binding assay (SPR, Biacore T200); conditions: 20° C., 1:1 binding model
Cbl-b (residues 36-427), sequence (Q13191 36-427): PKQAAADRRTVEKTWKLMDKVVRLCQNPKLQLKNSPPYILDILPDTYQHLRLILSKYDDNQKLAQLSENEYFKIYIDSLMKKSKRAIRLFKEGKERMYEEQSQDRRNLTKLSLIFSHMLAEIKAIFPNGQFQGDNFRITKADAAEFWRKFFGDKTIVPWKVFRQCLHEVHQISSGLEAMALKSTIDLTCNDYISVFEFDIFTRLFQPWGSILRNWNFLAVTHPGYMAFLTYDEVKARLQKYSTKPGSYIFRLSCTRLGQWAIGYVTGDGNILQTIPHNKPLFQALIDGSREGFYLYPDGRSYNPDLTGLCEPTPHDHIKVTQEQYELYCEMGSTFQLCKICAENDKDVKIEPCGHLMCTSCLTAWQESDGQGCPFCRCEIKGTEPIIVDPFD
In short: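 Affinities derived from global 1:1 steady-state or kinetic fits of double-referenced, solvent-corrected SPR data, 20 °C, NeutrAvidin-capture chip. Compound series (top 100 or 50 μM, 8–10 points) injected 50 s, 90–180 s dissociation. Asterisked values used 50 mM instead of 100 mM NaCl and 30 nM Src kinase.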

[5] = fold change over baseline, 0.3 μM Cbl-b inhibitor, read-out: IL-2 secretion Anti-CD3/Anti-CD28 stimulation
[6] = fold change over baseline, 1 μM Cbl-b inhibitor, read-out: IL-2 secretion Anti-CD3/Anti-CD28 stimulation
[7] = fold change over baseline, 4 μM Cbl-b inhibitor, read-out: IL-2 secretion Anti-CD3/Anti-CD28 stimulation
[8] = fold change over baseline, 0.3 μM Cbl-b inhibitor, read-out: CD25 staining Anti-CD3/Anti-CD28 stimulation
[9] = fold change over baseline, 1 μM Cbl-b inhibitor, read-out: CD25 staining Anti-CD3/Anti-CD28 stimulation
[10] = fold change over baseline, 4 μM Cbl-b inhibitor, read-out: CD25 staining Anti-CD3/Anti-CD28 stimulation
[11] = assay buffer with 100 mM NaCl, 60 nM Src kinase, read-out: Cbl-b activity IC50
[12] = * assay buffer containing 50 mM NaCl instead of 100 mM NaCl and 30 nM Src kinase instead of 60 nM, read-out: Cbl-b activity IC50 (μM)*
[13] = 0.3 μM compound, baseline = anti-CD3/anti-CD28 stimulated cells without inhibitor, read-out: IL-2 secretion, Anti-CD3/Anti-CD28 stimulation, fold change over baseline
[14] = 1 μM compound, baseline = anti-CD3/anti-CD28 stimulated cells without inhibitor, read-out: IL-2 secretion, Anti-CD3/Anti-CD28 stimulation, fold change over baseline
[15] = 4 μM compound, baseline = anti-CD3/anti-CD28 stimulated cells without inhibitor, read-out: IL-2 secretion, Anti-CD3/Anti-CD28 stimulation, fold change over baseline
[16] = 0.3 μM compound, baseline = anti-CD3/anti-CD28 stimulated cells without inhibitor, read-out: CD25 staining, Anti-CD3/Anti-CD28 stimulation, fold change over baseline
[17] = 1 μM compound, baseline = anti-CD3/anti-CD28 stimulated cells without inhibitor, read-out: CD25 staining, Anti-CD3/Anti-CD28 stimulation, fold change over baseline
[18] = 4 μM compound, baseline = anti-CD3/anti-CD28 stimulated cells without inhibitor, read-out: CD25 staining, Anti-CD3/Anti-CD28 stimulation, fold change over baseline

T1 sequence (Q13191 36-427): as above

Row | Compound | IC50 (Cbl-b [1]) | fold induction at 0.3 µM (T-cell [2]; [5]) | fold induction at 1 µM (T-cell [2]; [6]) | fold induction at 4 µM (T-cell [2]; [7]) | fold induction at 0.3 µM (T-cell [3]; [8]) | fold induction at 1 µM (T-cell [3]; [9]) | fold induction at 4 µM (T-cell [3]; [10]) | IC50 (Cbl-b [4]; [11]) | Kd (Cbl-b (residues 36-427)) | IC50 (Cbl-b [4]; [12]) | fold induction at 0.3 µM (T-cell [2]; [13]) | fold induction at 1 µM (T-cell [2]; [14]) | fold induction at 4 µM (T-cell [2]; [15]) | fold induction at 0.3 µM (T-cell [3]; [16]) | fold induction at 1 µM (T-cell [3]; [17]) | fold induction at 4 µM (T-cell [3]; [18])
1 | Cn1cnnc1C(F)(F)C(C)(F)c1cccc(N2Cc3c(cccc3C(F)(F)F)C2=O)c1 (racemic) [Compound 296, 2-(3-(1,1,2-trifluoro-1-(4-methyl-4H-1,2,4-triazol-3-yl)propan-2-yl)phenyl)-4-(trifluoromethyl)isoindolin-1-one] | ≤ 1000 nM | < 1 | < 1 | 1.01 to 2.5 | 1.01 to 1.3 | 1.01 to 1.3 | 1.01 to 1.3 | 0.301 to 1 µM | 3000 to 10000 nM | – | – | – | – | – | – | –
2 | Cn1cnnc1CC(C)(F)c1cccc(N2Cc3c(cccc3C(F)(F)F)C2=O)c1 (racemic) [Compound 298, 2-(3-(2-fluoro-1-(4-methyl-4H-1,2,4-triazol-3-yl)propan-2-yl)phenyl)-4-(trifluoromethyl)isoindolin-1-one] | ≤ 500 nM | 5 to 7.5 | 5 to 7.5 | > 7.5 | < 1 | 1.01 to 1.3 | 1.01 to 1.3 | 0.1 to 0.3 µM | < 100 nM | – | – | – | – | – | – | –
3 | C[C@H](Cc1nncn1C)c1cc(N[C@@H]2CCOC2)nc(N2Cc3c(cccc3C(F)(F)F)C2=O)c1 (stereo in doubt) [Compound 362, 2-(4-((R)-1-(4-methyl-4H-1,2,4-triazol-3-yl)propan-2-yl)-6-((S)-THF-3-ylamino)pyridin-2-yl)-4-(trifluoromethyl)isoindolin-1-one] | ≤ 300 nM | 1.01 to 2.5 | 1.01 to 2.5 | 1.01 to 2.5 | < 1 | 1.01 to 1.3 | 1.01 to 1.3 | 0.1 to 0.3 µM | 100 to 300 nM | – | – | – | – | – | – | –
4 | Cc1cc(C(=O)Nc2cccc([C@H](C)Sc3nncn3C)c2)nc2ccccc12 [Compound 30, (S)-4-Methyl-N-(3-(1-((4-methyl-4H-1,2,4-triazol-3-yl)thio)ethyl)phenyl)quinoline-2-carboxamide] | ≤ 500 nM | 1.01 to 2.5 | 1.01 to 2.5 | 2.51 to 5 | 1.01 to 1.3 | 1.01 to 1.3 | 1.01 to 1.3 | 0.301 to 1 µM | 1000 to 3000 nM | 0.301 to 1 µM | – | – | – | – | – | –
5 | C[C@H](Sc1nncn1C)c1cccc(NC(=O)c2cc(C(F)(F)F)ccn2)c1 [Compound 32, (S)-N-(3-(1-((4-Methyl-4H-1,2,4-triazol-3-yl)thio)ethyl)phenyl)-4-(trifluoromethyl)picolinamide] | ≤ 10000 nM | < 1 | 1.01 to 2.5 | 1.01 to 2.5 | 1.01 to 1.3 | 1.01 to 1.3 | 1.01 to 1.3 | 3 to 10 µM | 1000 to 3000 nM | 1 to 3 µM | – | – | – | – | – | –
6 | CC(C)c1cccc(C(=O)Nc2cccc([C@H](C)Sc3nncn3C)c2)n1 [Compound 33, (S)-6-Isopropyl-N-(3-(1-((4-methyl-4H-1,2,4-triazol-3-yl)thio)ethyl)phenyl)picolinamide] | ≤ 500 nM | 2.51 to 5 | 2.51 to 5 | > 7.5 | 1.01 to 1.3 | 1.01 to 1.3 | 1.01 to 1.3 | 0.1 to 0.3 µM | 301 to 1000 nM | 0.301 to 1 µM | – | – | – | – | – | –
7 | C[C@H](Cc1nncn1C)c1cccc(NC(=O)c2cccc(CCO)n2)c1 [Compound 202, 6-(2-hydroxyethyl)-N-[3-[(2R)-1-(4-methyl-4H-1,2,4-triazol-3-yl)propan-2-yl]phenyl]pyridine-2-carboxamide] | ≤ 1000 nM | 1.01 to 2.5 | 1.01 to 2.5 | 2.51 to 5 | 1.01 to 1.3 | 1.01 to 1.3 | 1.31 to 1.5 | 0.301 to 1 µM | – | – | – | – | – | – | – | –
8 | Cn1cnnc1C(F)(F)[C@](C)(F)c1cccc(N2Cc3c(cccc3C(F)(F)F)C2=O)c1 [Compound 296a, (R)-2-(3-(1,1,2-trifluoro-1-(4-methyl-4H-1,2,4-triazol-3-yl)propan-2-yl)phenyl)-4-(trifluoromethyl)isoindolin-1-one] | ≤ 500 nM | 1.01 to 2.5 | 1.01 to 2.5 | 2.51 to 5 | 1.01 to 1.3 | 1.01 to 1.3 | 1.01 to 1.3 | 0.1 to 0.3 µM | – | – | – | – | – | – | – | –
9 | Cn1cnnc1[C@@H]1C[C@@H]1c1cccc(N2Cc3c(ccnc3C(F)(F)F)C2=O)c1 [Compound 369, 2-{3-[(1S,2R)-2-(4-methyl-4H-1,2,4-triazol-3-yl)cyclopropyl]phenyl}-4-(trifluoromethyl)-1H,2H,3H-pyrrolo[3,4-c]pyridin-1-one] | – | – | – | – | – | – | – | 0.301 to 1 µM | – | – | 1.01 to 2.5 | 1.01 to 2.5 | 1.01 to 2.5 | 1.01 to 1.3 | 1.01 to 1.3 | 1.01 to 1.3
10 | Cc1cc2c(c(C3CC3)n1)CN(c1cccc([C@H](C)Cc3nncn3C)c1)C2=O [Compound 372, 4-cyclopropyl-6-methyl-2-{3-[(2R)-1-(4-methyl-4H-1,2,4-triazol-3-yl)propan-2-yl]phenyl}-1H,2H,3H-pyrrolo[3,4-c]pyridin-1-one] | – | – | – | – | – | – | – | 0.301 to 1 µM | – | – | 1.01 to 2.5 | 1.01 to 2.5 | 2.51 to 5 | 1.01 to 1.3 | 1.01 to 1.3 | 1.01 to 1.3
11 | CNCc1ccc(C(=O)Nc2cccc([C@H](C)Cc3nncn3C)c2)nc1C1CC1 [Compound 376, (R)-6-cyclopropyl-N-(3-(1-(4-methyl-4H-1,2,4-triazol-3-yl)propan-2-yl)phenyl)-5-((methylamino)methyl)picolinamide] | ≤ 300 nM | – | – | – | – | – | – | 0.1 to 0.3 µM | – | – | 1.01 to 2.5 | 2.51 to 5 | > 7.5 | 1.01 to 1.3 | 1.31 to 1.5 | 1.51 to 1.75
